{"source": "patent US20190358181A1", "about": "“METHODS FOR AUTISM SPECTRUM DISORDER PHARMACOTHERAPY” (priority 2017, published 2019)", "system": "610 metabolites from 63 biochemical pathways", "experiment": "Targeted broad-spectrum plasma metabolomic analysis (LC-MS/MS), paired pre-infusion vs post-infusion (2-days and 6-weeks)", "format": "in vivo, human", "details": "for Linear Ratio / VIP Score / Z Abs / Z Score: plasma", "method": "Targeted, broad-spectrum, plasma metabolomic analysis of 610 metabolites from 63 biochemical pathways was performed by high performance liquid chromatography and tandem mass spectrometry (LC-MS/MS) on the samples collected from patients in Example 1. Venous blood was collected between the hours of 8 am and 5 pm, at least 3 hours after the last meal, into lithium-heparin vacutainer tubes (BD #367884). Plasma was separated by centrifugation at 900 g×10 minutes at room temperature within one hour of collection. The resulting fresh lithium-heparin plasma was transferred to labeled 1.2 ml or 2.0 ml externally threaded cryotubes with a minimum headspace air gap for storage at −80° C. for analysis. Samples were analyzed on an AB SCIEX QTRAP 5500 triple quadrupole mass spectrometer equipped with a Turbo V electrospray ionization (ESI) source, Shimadzu LC-20A UHPLC system, and a PAL CTC autosampler. Typically, 90 μl of plasma was thawed on ice and transferred to a 1.7 ml Eppendorf tube. Five (5.0) μl of a cocktail containing 25-35 commercial stable isotope internal standards, and 5.0 μl of 57 stable isotope internal standards that were custom-synthesized in E. coli NCM3722, Caenorhabditis elegans N2, and Komagataella phaffii (ATCC 76273; formerly known as Pichia pastoris) by metabolic labeling with 13C-glucose and 13C-bicarbonate, were added, mixed, and incubated for 10 min at 20° C. to permit small molecules and vitamins in the internal standards to associate with plasma binding proteins. Macromolecules (protein, DNA, RNA, glycans, etc.) were precipitated by extraction with 4 volumes (400 μl) of cold (−20° C.), acetonitrile:methanol (50:50) (LCMS grade, Cat #LC015-2.5 and GC230-4, Burdick & Jackson, Honeywell), vortexed vigorously, and incubated on crushed ice for 10 min, then removed by centrifugation at 16,000 g×10 min at 4° C. The supernatants containing the extracted metabolites and internal standards in the resulting 40:40:20 solvent mix of acetonitrile:methanol:water were transferred to labeled cryotubes and stored at −80° C. for LCMS/MS analysis.\nLC-MS/MS analysis was performed by scheduled multiple reaction monitoring (sMRM) under Analyst v1.6.2 software control in both negative and positive mode with rapid polarity switching (50 ms). Nitrogen was used for curtain gas (set to 30), collision gas (set to high), ion source gas 1 and 2 (set to 35). The source temperature was 500° C. Spray voltage was set to −4500 V in negative mode and 5500 V in positive mode. The values for Q1 and Q3 mass-to-charge ratios (m/z), declustering potential (DP), entrance potential (EP), collision energy (CE), and collision cell exit potential (CXP) were determined and optimized for each MRM for each metabolite. Ten microliters of extract was injected by PAL CTC autosampler via a 10 μl stainless steel loop into a 250 mm×2.0 mm, 4 μm polymer based NH2 HPLC column (Asahipak NH2P-40 2E, Showa Denko America, Inc., NY) held at 25° C. for chromatographic separation. The mobile phase was solvent A: 95% water with 20 mM (NH4)2CO3 (Sigma, Fluka Cat #74415-250G-F), 5% acetonitrile, and 38 mM NH4OH (Sigma, Fluka Cat #17837-100ML), final pH 9.75; solvent B: 100% acetonitrile. Separation was achieved using the following gradient: 0-3.5 min: 95% B, 3.6-8 min: 85% B, 8.1-13 min: 75% B, 13.5-35 min: 0% B, 36-46 min: 95% B, 46.1 min: end. The flow rate was 200 μl/min. Pump pressures ranged from 920-2600 psi over the course of the gradient. All the samples were kept at 4° C. during analysis. The chromatographic peaks were identified using MultiQuant (v3.0, Sciex), confirmed by manual inspection, and the peak areas integrated. […]", "key": {"[1]": {"details": "S-Adenosylhomocysteine, 6-weeks"}, "[2]": {"details": "SAM, SAH, Methionine, Cysteine, Glutathione, 2-days"}, "[3]": {"details": "SAM, SAH, Methionine, Cysteine, Glutathione, 6-weeks"}, "[4]": {"details": "Sphingomyelin Metabolism, 2-days"}, "[5]": {"details": "Sphingomyelin Metabolism, 6-weeks"}, "[6]": {"details": "Subtotal, all pathways, 6-weeks"}, "[7]": {"details": "Subtotals, all pathways, 2-days"}, "[8]": {"details": "Taurine, Hypotaurine Metabolism, 2-days"}, "[9]": {"details": "Tryptophan, Kynurenine, Serotonin, Melatonin, 6-weeks"}, "[10]": {"details": "Tryptophan, Kynurenine, Serotonin, 2-days"}, "[11]": {"details": "Tyrosine and Phenylalanine Metabolism, 2-days"}}}
{"smiles": "Cc1ccc(C(=O)Nc2ccc(S(=O)(=O)O)c3cc(S(=O)(=O)O)cc(S(=O)(=O)O)c23)cc1NC(=O)c1cccc(NC(=O)Nc2cccc(C(=O)Nc3cc(C(=O)Nc4ccc(S(=O)(=O)O)c5cc(S(=O)(=O)O)cc(S(=O)(=O)O)c45)ccc3C)c2)c1", "note": "[Suramin, suramin]", "values": [{"measurement": "Fraction of Impact (VIP Score) Explained (% of 119.7)", "setting": "Purine Metabolism, 2-days", "value": 15, "unit": "%"}, {"measurement": "Impact (Sum VIP Score)", "setting": "Purine Metabolism, 2-days", "value": 17.6}, {"measurement": "Increased", "setting": "Purine Metabolism, 2-days", "value": 4}, {"measurement": "Observed Hits in the Top 61 Metabolites", "setting": "Purine Metabolism, 2-days", "value": 9}, {"measurement": "Decreased", "setting": "Purine Metabolism, 6-weeks", "value": 2}, {"measurement": "Fold Enrichment (Obs/Exp)", "setting": "Purine Metabolism, 6-weeks", "value": 1.7}, {"measurement": "Fraction of Impact (VIP Score) Explained (% of 94.6)", "setting": "Purine Metabolism, 6-weeks", "value": 11, "unit": "%"}, {"measurement": "Impact (Sum VIP Score)", "setting": "Purine Metabolism, 6-weeks", "value": 10.2}, {"measurement": "Increased", "setting": "Purine Metabolism, 6-weeks", "value": 3}, {"measurement": "Observed Hits in the Top 48 Metabolites", "setting": "Purine Metabolism, 6-weeks", "value": 5}, {"measurement": "Linear Ratio", "setting": "Purine, 6-weeks", "value": 1.307}, {"measurement": "VIP Score", "setting": "Purine, 6-weeks", "value": 1.980}, {"measurement": "Z Abs", "setting": "Purine, 6-weeks", "value": 1.650}, {"measurement": "Z Score", "setting": "Purine, 6-weeks", "value": 1.650}, {"measurement": "Decreased", "setting": "Pyrimidine Metabolism, 2-days", "value": 1}, {"measurement": "Fold Enrichment (Obs/Exp)", "setting": "Pyrimidine Metabolism, 2-days", "value": 1.6}, {"measurement": "Fraction of Impact (VIP Score) Explained (% of 119.7)", "setting": "Pyrimidine Metabolism, 2-days", "value": 4, "unit": "%"}, {"measurement": "Impact (Sum VIP Score)", "setting": "Pyrimidine Metabolism, 2-days", "value": 4.3}, {"measurement": "Increased", "setting": "Pyrimidine Metabolism, 2-days", "value": 1}, {"measurement": "Observed Hits in the Top 61 Metabolites", "setting": "Pyrimidine Metabolism, 2-days", "value": 2}, {"measurement": "Decreased", "setting": "Pyrimidine Metabolism, 6-weeks", "value": 0}, {"measurement": "Fold Enrichment (Obs/Exp)", "setting": "Pyrimidine Metabolism, 6-weeks", "value": 2.0}, {"measurement": "Fraction of Impact (VIP Score) Explained (% of 94.6)", "setting": "Pyrimidine Metabolism, 6-weeks", "value": 4, "unit": "%"}, {"measurement": "Impact (Sum VIP Score)", "setting": "Pyrimidine Metabolism, 6-weeks", "value": 4.2}, {"measurement": "Increased", "setting": "Pyrimidine Metabolism, 6-weeks", "value": 2}, {"measurement": "Observed Hits in the Top 48 Metabolites", "setting": "Pyrimidine Metabolism, 6-weeks", "value": 2}, {"measurement": "Linear Ratio", "setting": "[1]", "value": 1.417}, {"measurement": "VIP Score", "setting": "[1]", "value": 1.894}, {"measurement": "Z Abs", "setting": "[1]", "value": 0.971}, {"measurement": "Z Score", "setting": "[1]", "value": 0.971}, {"measurement": "Decreased", "setting": "[2]", "value": 1}, {"measurement": "Fold Enrichment (Obs/Exp)", "setting": "[2]", "value": 1.4}, {"measurement": "Fraction of Impact (VIP Score) Explained (% of 119.7)", "setting": "[2]", "value": 5, "unit": "%"}, {"measurement": "Impact (Sum VIP Score)", "setting": "[2]", "value": 5.6}, {"measurement": "Increased", "setting": "[2]", "value": 2}, {"measurement": "Observed Hits in the Top 61 Metabolites", "setting": "[2]", "value": 3}, {"measurement": "Decreased", "setting": "[3]", "value": 0}, {"measurement": "Fold Enrichment (Obs/Exp)", "setting": "[3]", "value": 3.0}, {"measurement": "Fraction of Impact (VIP Score) Explained (% of 94.6)", "setting": "[3]", "value": 10, "unit": "%"}, {"measurement": "Impact (Sum VIP Score)", "setting": "[3]", "value": 9.5}, {"measurement": "Increased", "setting": "[3]", "value": 5}, {"measurement": "Observed Hits in the Top 48 Metabolites", "setting": "[3]", "value": 5}, {"measurement": "Linear Ratio", "setting": "SM(d18:1/18:2), 6-weeks", "value": 1.424}, {"measurement": "VIP Score", "setting": "SM(d18:1/18:2), 6-weeks", "value": 1.508}, {"measurement": "Z Abs", "setting": "SM(d18:1/18:2), 6-weeks", "value": 0.750}, {"measurement": "Z Score", "setting": "SM(d18:1/18:2), 6-weeks", "value": 0.750}, {"measurement": "Linear Ratio", "setting": "SM(d18:1/26:0 OH), 6-weeks", "value": 1.671}, {"measurement": "VIP Score", "setting": "SM(d18:1/26:0 OH), 6-weeks", "value": 2.622}, {"measurement": "Z Abs", "setting": "SM(d18:1/26:0 OH), 6-weeks", "value": 2.002}, {"measurement": "Z Score", "setting": "SM(d18:1/26:0 OH), 6-weeks", "value": 2.002}, {"measurement": "Decreased", "setting": "[4]", "value": 2}, {"measurement": "Fold Enrichment (Obs/Exp)", "setting": "[4]", "value": 0.4}, {"measurement": "Fraction of Impact (VIP Score) Explained (% of 119.7)", "setting": "[4]", "value": 3, "unit": "%"}, {"measurement": "Impact (Sum VIP Score)", "setting": "[4]", "value": 3.6}, {"measurement": "Increased", "setting": "[4]", "value": 0}, {"measurement": "Observed Hits in the Top 61 Metabolites", "setting": "[4]", "value": 2}, {"measurement": "Decreased", "setting": "[5]", "value": 0}, {"measurement": "Fold Enrichment (Obs/Exp)", "setting": "[5]", "value": 0.5}, {"measurement": "Fraction of Impact (VIP Score) Explained (% of 94.6)", "setting": "[5]", "value": 4, "unit": "%"}, {"measurement": "Impact (Sum VIP Score)", "setting": "[5]", "value": 4.1}, {"measurement": "Increased", "setting": "[5]", "value": 2}, {"measurement": "Observed Hits in the Top 48 Metabolites", "setting": "[5]", "value": 2}, {"measurement": "Decreased", "setting": "[6]", "value": 6}, {"measurement": "Increased", "setting": "[6]", "value": 42}, {"measurement": "Decreased", "setting": "[7]", "value": 23}, {"measurement": "Increased", "setting": "[7]", "value": 38}, {"measurement": "Decreased", "setting": "[8]", "value": 1}, {"measurement": "Fold Enrichment (Obs/Exp)", "setting": "[8]", "value": 3.5}, {"measurement": "Fraction of Impact (VIP Score) Explained (% of 119.7)", "setting": "[8]", "value": 2, "unit": "%"}, {"measurement": "Impact (Sum VIP Score)", "setting": "[8]", "value": 2.0}, {"measurement": "Increased", "setting": "[8]", "value": 0}, {"measurement": "Observed Hits in the Top 61 Metabolites", "setting": "[8]", "value": 1}, {"measurement": "Linear Ratio", "setting": "Tiglylglycine, 6-weeks", "value": 1.302}, {"measurement": "VIP Score", "setting": "Tiglylglycine, 6-weeks", "value": 1.878}, {"measurement": "Z Abs", "setting": "Tiglylglycine, 6-weeks", "value": 1.310}, {"measurement": "Z Score", "setting": "Tiglylglycine, 6-weeks", "value": 1.310}, {"measurement": "Decreased", "setting": "[9]", "value": 0}, {"measurement": "Fold Enrichment (Obs/Exp)", "setting": "[9]", "value": 1.5}, {"measurement": "Fraction of Impact (VIP Score) Explained (% of 94.6)", "setting": "[9]", "value": 2, "unit": "%"}, {"measurement": "Impact (Sum VIP Score)", "setting": "[9]", "value": 2.1}, {"measurement": "Increased", "setting": "[9]", "value": 1}, {"measurement": "Observed Hits in the Top 48 Metabolites", "setting": "[9]", "value": 1}, {"measurement": "Decreased", "setting": "[10]", "value": 0}, {"measurement": "Fold Enrichment (Obs/Exp)", "setting": "[10]", "value": 1.2}, {"measurement": "Fraction of Impact (VIP Score) Explained (% of 119.7)", "setting": "[10]", "value": 1, "unit": "%"}, {"measurement": "Impact (Sum VIP Score)", "setting": "[10]", "value": 1.6}, {"measurement": "Increased", "setting": "[10]", "value": 1}, {"measurement": "Observed Hits in the Top 61 Metabolites", "setting": "[10]", "value": 1}, {"measurement": "Decreased", "setting": "[11]", "value": 0}, {"measurement": "Fold Enrichment (Obs/Exp)", "setting": "[11]", "value": 2.4}, {"measurement": "Fraction of Impact (VIP Score) Explained (% of 119.7)", "setting": "[11]", "value": 2, "unit": "%"}, {"measurement": "Impact (Sum VIP Score)", "setting": "[11]", "value": 1.8}]}
